Values quoted from earlier work, collected in publication PMC5559489 (Scientific Reports, 2017).

Experiments:
[1] = tested on: A(H1N1)pdm2009 clinical isolates with H275Y mutation; conditions: cited from earlier work
[2] = tested on: A(H1N1)pdm09 isolates containing NA H275Y and I223R; conditions: cited from earlier work

CCOC(=O)C1=C[C@@H](OC(CC)CC)[C@H](NC(C)=O)[C@@H](N)C1 [oseltamivir, Oseltamivir]
decrease of sensitivity compared to wild-type [1]: 1466 fold
decreased susceptibility to oseltamivir [2]: 246 fold
